The test system of one series is KMS28PE. The experiment in a line: MM cell viability assay (MTS proliferation). Format: cell-based. Conditions: Homo sapiens, KMS-28PE; 72 hours, average of n ≥ 8 determinations; read-out: MM cells EC50, KMS28PE. As for the experimental part:
(§1) Various MM cancer cell lines (Table 3 and FIGS. 5 and 6) were cultured in RPMI-1640 medium supplemented with 10% fetal bovine serum (Gibco BRL, Gaithersburg, Md.) supplemented with 2 mM L-glutamine in a 5% CO2 atmosphere at 37° C. EC50 values for each target compound were determined using a commercial MTS proliferation assay (Promega, Madison, Wis.) following the manufacturer's instructions. Briefly, compounds were diluted directly into culture medium and then applied to cells that were seeded in 96-well plates at a density 5,000 cells per well. Cells were incubated with the indicated final concentration of compound in a total media volume of 100 μl/well for 72 hours prior to the addition of the MTS reagent. Plates were incubated at 37° C. in the presence 5% CO2 for 2 hours prior to recording OD490 using a Tecan Infinite M200Pro microplate reader. Results were analyzed to obtain dose-response curves and EC50 calculations using GraphPad PRISM version 5 for the MacIntosh (GraphPad Software, San Diego, Calif.).

In the next series the test system is JJN3. The experiment in a line: MM cell viability assay (MTS proliferation). Format: cell-based. As to conditions: Homo sapiens, JJN-3; 72 hours, average of n ≥ 8 determinations; read-out: MM cells EC50, JJN3. Here is the method:
as §1

Series [1] relates to phosphorylated Tau protein (P-Tau). The experiment in a line: Phosphorylation of the tau protein in immortalized human neurons. The class given is cell-based. Conditions: immortalized human neurons (SH-SYSY).
The test system of a further series is SH-SYSY neurons. The experiment in a line: LDH toxicity assay in immortalized human neurons. Format: cell-based.
For series [2], the target named is T1, hFPPS (Homo sapiens (Human), UniProt P14324). As to conditions: read-out: hFPPS IC50.
The test system of the next series is RPMI-8226. The experiment in a line: MM cell viability assay (MTS proliferation). Format: cell-based. As to conditions: Homo sapiens, 72 hours, average of n ≥ 8 determinations, read-out: MM cells EC50, RPMI-8226.
The target of a further series is recombinant human GGPPS (Homo sapiens (Human), UniProt O95749). The experiment in a line: In vitro hGGPPS inhibition assay. Format: biochemical. As to conditions: for IC50: wild-type hGGPPS enzyme, average of n ≥ 3 determinations; for selectivity improved for inhibiting hGGPPS vs hFPPS: starting from the original hits, e.g. C-5.
Series [3] concerns the target T1, hFPPS. The experiment in a line: biochemical.
Series [4] concerns chronic myelogenous leukemia (K562) cells. The experiment in a line: Cancer cell viability. The class given is cell-based, human. As to conditions: compared to zolendronate (ZOL), FIG. 4. Here is the method: (§2) NCI-ADR-RES cells were obtained from National Cancer Institute (NCI) and all other cell lines were obtained from the American Type Culture Collection (ATCC). NHBE cells were maintained in Bronchial Epithelial Cell Growth Medium (BEGM) supplemented with 10% FBS (Multicell) and 2 mM L-glutamine (Gibco/Life Technologies). All other cells were maintained in culture using Roswell Park Memorial Institute (RPMI) 1640 media supplemented with 10% FBS (Multicell), Penicillin (100 U/mL), Streptomycin (100 ug/mL) and 2 mM L-glutamine (Gibco/Life Technologies). Cells were plated in logarithmic growth phase in each well of clear bottom multiwell plates and cultured 16-24 h before drug treatment. […]
(§3) Cell viability was determined by cellular quantitation of adenosine triphosphate (ATP) using the CellTiter-Glo Luminescent Cell Viability Assay Kit (Promega Corporation, Cat. No. G7571). Briefly, the CellTiter-Glo «one-mix-measure» reagent, containing both the cell permeabilizing agent and the Ultra-Glo luciferase, was added to the cell culture according to manufacturers' instructions allowing the free ATP to be released from viable cells and subsequently converted into luminescence. The luminescence generated in the reaction is directly proportional to cell viability and was quantified in a luminometer (PHERAstar FS, BMG Labtech) […]

In series [5] the test system is acute monocytic leukemia (MOLM-13) cells. The experiment in a line: Cancer cell viability. Format: cell-based, human. As to conditions: compared to zolendronate (ZOL), FIG. 4. As for the experimental part:
as §2, §3

For series [6], the system named is multiple myeloma cell line RPMI-8226. The experiment in a line: Apoptosis assay in multiple myeloma cells (flow cytometry). Format: cell-based, human. As to conditions: 100 nM, 500 nM, and 1 μM, 72 h, FIG. 6. Here is the method:
To determine the ability of compounds of the application to induce MM cell lines to undergo apoptosis, cells were seeded at a density of 7.5×10^5/mL in medium supplemented with 10% FBS with increasing concentrations of compound (i.e. compound that inhibits hGGPPS) or vehicle alone. Following a 72 h incubation, apoptosis was determined by double staining with APC Annexin V (BD Biosciences, Mississauga ON) and eFluor 780 Viability dye (ThermoFisher Scientific) according to the manufacturer's directions. Stained samples were acquired on a BD FACSCanto II instrument (BD Biosciences, Mississauga ON) and post-acquisition analyses were performed using FlowJo (V10) software. Apoptosis of multiple myeloma cells was also determined by flow cytometry by double staining cells with Allophycocyanin (APC) conjugated Annexin V and a V450 conjugated Mouse Anti-Human CD138 monoclonal antibody, following the manufacturer's instructions (BD Biosciences, Mississauga ON).
On the technique in general: A flow cytometer gives signals particle by particle.

The nature of series [7]: in vitro. Conditions: male, CD-1, mouse, microsomes.
Series [8] in a line: in vitro. As to conditions: human, microsomes.
Series [9] can be described thus: in vitro. Conditions: Sprague-Dawley, rat, microsomes.
The nature of series [10]: Lipophilicity by C-18 reversed phase HPLC relative retention. As to conditions: versus zolodronic acid.
In series [11] the test system is normal human bronchial cells (NHBE). The experiment in a line: Cell viability (CellTiter-Glo), normal cells. The class given is cell-based. As to conditions: compared to doxorubicin, FIG. 3a. As for the experimental part:
as §2, §3
A general note: Cellular ATP, detected with luciferase, serves as a proxy for viable cell number.

Read-outs that look alike come from different tables or passages of the source. Some results are limits rather than exact numbers.

Chain of recombinant human GGPPS (O95749 whole entry): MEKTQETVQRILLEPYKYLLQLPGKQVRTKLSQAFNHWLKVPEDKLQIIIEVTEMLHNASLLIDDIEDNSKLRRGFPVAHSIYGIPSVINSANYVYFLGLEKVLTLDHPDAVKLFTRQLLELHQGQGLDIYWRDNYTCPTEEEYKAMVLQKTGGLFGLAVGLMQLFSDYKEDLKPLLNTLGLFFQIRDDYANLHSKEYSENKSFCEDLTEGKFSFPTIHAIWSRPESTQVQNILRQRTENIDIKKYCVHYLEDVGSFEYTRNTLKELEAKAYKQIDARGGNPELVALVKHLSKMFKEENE
T1 sequence (P14324 whole entry): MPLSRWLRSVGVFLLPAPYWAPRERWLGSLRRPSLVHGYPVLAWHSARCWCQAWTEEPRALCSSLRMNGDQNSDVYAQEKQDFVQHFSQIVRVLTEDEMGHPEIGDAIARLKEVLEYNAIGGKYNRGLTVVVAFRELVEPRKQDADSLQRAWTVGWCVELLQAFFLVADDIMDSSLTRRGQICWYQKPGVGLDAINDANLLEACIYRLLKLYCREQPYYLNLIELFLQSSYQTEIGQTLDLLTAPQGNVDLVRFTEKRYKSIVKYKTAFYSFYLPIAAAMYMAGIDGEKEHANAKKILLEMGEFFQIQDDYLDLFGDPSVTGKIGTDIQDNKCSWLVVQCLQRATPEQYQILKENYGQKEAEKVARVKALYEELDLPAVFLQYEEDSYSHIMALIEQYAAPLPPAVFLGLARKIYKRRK

For the compound `COc1ccc(C(=O)Nc2cccc(-c3nc(NC(P(=O)(O)O)P(=O)(O)O)c4ccsc4n3)c2)cc1` [Compound I-5, (((2-(3-(4-methoxybenzamido)phenyl)thieno[2,3-d]pyrimidin-4-yl)amino)methylene)bis(phosphonic acid)], the values for the EC50 with KMS28PE, in the series on JJN3 and in the series on RPMI-8226 were 1.4 µM, 1.3 µM and 0.38 µM, respectively. The “Reduction in P-Tau/Total-tau protein” value in [1] amounted to 43%. In the series on SH-SYSY neurons, the “LDH Toxicity Assay (relative toxicity compared to the control samples)” value is given as “None observed”. In addition, the IC50 at hFPPS [2] came out at 1 µM; at recombinant human GGPPS it was 0.085 µM. For the same compound, the “Ratio of hFPPS IC50 vs hGGPPS IC50” value at recombinant human GGPPS is recorded as 12.
Turning to `Cc1ccc(C(=O)Nc2cccc(-c3nc(NC(P(=O)(O)O)P(=O)(O)O)c4ccsc4n3)c2)cc1` [Compound I-18, (((2-(3-(4-methylbenzamido)phenyl)thieno[2,3-d]pyrimidin-4-yl)amino)methylene)bis(phosphonic acid)], the figures for the EC50 with KMS28PE, in the series on JJN3 and in the series with RPMI-8226 were 0.62 µM, 0.6 µM and 0.12 µM, respectively. The compound further displayed an IC50 against hFPPS [3] of 2.4 µM.
As to `O=P(O)(O)C(Nc1ncnc2sc(-c3ccccc3)cc12)P(=O)(O)O` [Compound C-10, reference compound], on hFPPS [2], the IC50 was determined as 0.2 µM.
With `O=P(O)(O)C(Nc1ncnc2sc(-c3ccc(C(F)(F)F)cc3)cc12)P(=O)(O)O` [Compound C-12, reference compound], the EC50 is above 10 µM in the series on JJN3 and above 50 µM in the series with RPMI-8226. Moreover, the IC50 at hFPPS [2] was 0.023 µM; at recombinant human GGPPS, around 10000 µM. Also, on recombinant human GGPPS, the “Ratio of hFPPS IC50 vs hGGPPS IC50” value is >4 × 10^−5.
As to `O=C(Nc1ccccc1)c1cccc(-c2nc(NC(P(=O)(O)O)P(=O)(O)O)c3ccsc3n2)c1` [Compound I-6, (((2-(3-(phenylcarbamoyl)phenyl)thieno[2,3-d]pyrimidin-4-yl)amino)methylene)bis(phosphonic acid)], the EC50 in the series on KMS28PE came out at 0.7 µM; with JJN3, 0.34 µM; in the series with RPMI-8226 it was 0.11 µM. Further, the “blocking viability of cancer cells” value in series [4] and in series [5] was “more effective” throughout. The IC50 on hFPPS [2] amounted to 3 µM; at recombinant human GGPPS, 0.053 µM. The “Ratio of hFPPS IC50 vs hGGPPS IC50” value at recombinant human GGPPS is recorded as 57. Also, the “selectivity improved for inhibiting hGGPPS vs hFPPS” value at recombinant human GGPPS was around 55 fold.
On to `O=P(O)(O)C(O)(Cn1ccnc1)P(=O)(O)O` [ZOL, zoledronic acid, reference compound], for which the EC50 was found to be 6.4 µM with KMS28PE and 5 µM with JJN3. Moreover, the “Reduction in P-Tau/Total-tau protein” value in [1] came to 50%.
For `O=C(Nc1cccc(-c2nc(NC(P(=O)(O)O)P(=O)(O)O)c3ccsc3n2)c1)c1ccccc1` [Compound I-13], the EC50 in the series on KMS28PE turned out to be 0.55 µM; in the series with JJN3 it was 0.5 µM; in the series on RPMI-8226, 0.1 µM. For the same compound, the IC50 at hFPPS [2] came out at 2 µM; at recombinant human GGPPS, 0.064 µM. On recombinant human GGPPS, the “Ratio of hFPPS IC50 vs hGGPPS IC50” value came to 31. On recombinant human GGPPS, the “selectivity improved for inhibiting hGGPPS vs hFPPS” value is “approximately 30 fold”.
Turning to `O=P(O)(O)C(Nc1nc(-c2ccccc2)nc2sccc12)P(=O)(O)O` [Compound C-5, reference compound], the IC50 against hFPPS [3] was found to be 0.54 µM; on recombinant human GGPPS, 0.082 µM. In addition, the “Ratio of hFPPS IC50 vs hGGPPS IC50” value at recombinant human GGPPS was around 7.
As to `COC(C(=O)Nc1cccc(-c2nc(NC(P(=O)(O)O)P(=O)(O)O)c3ccsc3n2)c1)c1ccccc1` (stereo not drawn) [Compound I-24], the apoptosis result in series [6] is on record as “induce apoptosis”.
Regarding `O=P(O)(O)C(O)(Cc1cccnc1)P(=O)(O)O` [RIS, Risedronic acid, reference compound], the EC50 with KMS28PE is 10.6 µM; in the series with JJN3, 10 µM.
For `COc1ccc(NC(=O)c2cccc(-c3nc(NC(P(=O)(O)O)P(=O)(O)O)c4ccsc4n3)c2)cc1F` [Compound I-37, (((2-(3-((3-fluoro-4-methoxyphenyl)carbamoyl)phenyl)thieno[2,3-d]pyrimidin-4-yl)amino)methylene)bis(phosphonic acid)], the EC50 in the series on KMS28PE amounted to 0.17 µM; with JJN3 it was 0.51 µM; in the series on RPMI-8226, 0.15 µM. Besides, the half-life in “in vitro [7]” turned out to be 2.13 h; in “in vitro [8]”, 2.57 h; in the series “in vitro [9]”, 3.12 h. The “difference in relative retention time on C-18 reversed phase HPLC column (lipophilicity)” value in series [10] was “more than 7 min”. For the same compound, the “toxicity to normal human bronchial cells” value in [11] was “less toxic”.
With `COc1ccc(NC(=O)c2cccc(-c3nc(NC(P(=O)(O)O)P(=O)(O)O)c4ncsc4n3)c2)cc1F` [Compound I-43], in the series with RPMI-8226, the half-maximal effective concentration (EC50) was 0.14 µM. The IC50 on recombinant human GGPPS is 0.065 µM.
For `COc1ccc(NC(=O)c2cccc(-c3nc(NC(P(=O)(O)O)P(=O)(O)O)c4sccc4n3)c2)cc1F` [Compound I-42, (((2-(3-((3-fluoro-4-methoxyphenyl)carbamoyl)phenyl)thieno[3,2-d]pyrimidin-4-yl)amino)methylene)bis(phosphonic acid)] the same measures were 0.2 µM and 0.085 µM.
Consider `O=P(O)(O)C(Nc1ncnc2sc(-c3ccc(OC4CC4)cc3)cc12)P(=O)(O)O` [Compound C-13, reference compound], for which the results for the EC50 in the series with JJN3 and with RPMI-8226 were above 10 µM and above 50 µM, respectively. The IC50 is 0.014 µM on hFPPS [2] and around 10000 µM at recombinant human GGPPS. On recombinant human GGPPS, the “Ratio of hFPPS IC50 vs hGGPPS IC50” value is given as >7 × 10^−5.

As usually defined, the EC50 is the concentration needed to bring the measured effect to its halfway point. Broadly, the IC50 is the point on the concentration scale where inhibition reaches its midpoint. Usually half-life stands for the time in which the quantity being followed falls by half. A lower half-life goes with rapid decline.

Source of the values: US11279719B2, “Substituted bicyclic pyrimidine-based compounds and compositions and uses thereof” (priority 2017, dated 2022).
